*1 amine or outer side, *2 acyl side, *3 side chain or, on linkers, in order; H or OH if unused. Where a SMILES comes first, the peptide text is derived from it. Side-chain parts run from the residue outwards. [ ]: non-standard residue; d: D form. The star is where a group is joined. PEG12 = NCCOCCOCCOCCOCCOCCOCCOCCOCCOCCOCCOCCOCCC(=O)O; γGlu = O=C(O)[C@H](CCC(=O)[*:2])N[*:1]; 1Nal = N[C@@H](Cc1cccc2ccccc12)C(=O)O; Stearoyl = CCCCCCCCCCCCCCCCCC(=O)*; Palmitoyl = CCCCCCCCCCCCCCCC(=O)*; Nle = CCCC[C@H](N)C(=O)O; Aib = CC(C)(N)C(=O)O
Target: T1, RXFP1 (Homo sapiens, UniProt Q9HBX9)
T1 construct: OVCAR5 cells expressing endogenous RXFP1; endogenous in cells; host or cells: OVCAR5 cells
T1 sequence (Q9HBX9 1-757): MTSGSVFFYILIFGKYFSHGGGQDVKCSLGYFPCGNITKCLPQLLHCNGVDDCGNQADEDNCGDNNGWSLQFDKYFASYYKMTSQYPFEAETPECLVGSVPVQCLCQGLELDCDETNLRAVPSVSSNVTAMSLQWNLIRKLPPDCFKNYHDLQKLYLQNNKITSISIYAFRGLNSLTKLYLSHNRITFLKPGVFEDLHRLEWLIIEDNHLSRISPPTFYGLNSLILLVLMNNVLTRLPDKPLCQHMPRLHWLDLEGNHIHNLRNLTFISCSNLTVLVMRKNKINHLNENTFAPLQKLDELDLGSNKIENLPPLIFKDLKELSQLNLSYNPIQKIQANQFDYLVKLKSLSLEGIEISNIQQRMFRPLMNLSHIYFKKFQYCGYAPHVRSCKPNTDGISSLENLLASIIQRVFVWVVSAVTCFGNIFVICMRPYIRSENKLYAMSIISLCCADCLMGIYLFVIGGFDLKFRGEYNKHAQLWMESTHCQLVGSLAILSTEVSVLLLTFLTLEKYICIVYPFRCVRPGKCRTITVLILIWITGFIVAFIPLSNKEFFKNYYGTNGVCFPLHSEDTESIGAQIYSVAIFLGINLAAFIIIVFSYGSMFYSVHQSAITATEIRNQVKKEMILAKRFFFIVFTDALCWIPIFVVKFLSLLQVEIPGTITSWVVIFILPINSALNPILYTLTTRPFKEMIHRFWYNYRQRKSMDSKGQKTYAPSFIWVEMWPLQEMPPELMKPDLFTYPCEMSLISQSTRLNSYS
Assay: OVCAR5 cAMP assay (HTRF), RXFP1 agonist activity
Assay type: cell-based
Details: for Emax: OVCAR-5, maximal cAMP relative to H2-relaxin maximum (100%), read-out: EMax, OVCAR 5 cells (cAMP); for EC50: OVCAR5 cells, cAMP HTRF, read-out: EC50 (nM), OVCAR 5 cells (cAMP)
Source text: OVCAR5 cells expressing endogenous RXFP1 were used to test RXP1 agonist properties of peptides of the invention, and in particular of the peptides of sequence SEQ ID NO: 1-193.
Since RXFP1 is a Gs coupled GPCR, cAMP was used as readout of RXFP1 activation.
Isobutyl Methyl Xanthine (IBMX) was used to inhibit phosphodiesterase activity facilitating cAMP measurements. HTRF (Homogenous Time Resolved Fluorescence) technology was used to detect cAMP due to its great sensitivity.
In summary, OVCAR5 were grown in regular medium (RPMI) containing 10% fetal calf serum (FCS) and 1% antibiotics (penicillin/streptomycin).
Before the experiments, cells were detached with accutase and incubated for 40 minutes at 37° C. with 1 mM (3-isobutyl-1-methylxanthine) IBMX.
Cells were then distributed in 384 black well plates containing increasing concentrations of the different peptides in a fix volume of medium (without FCS).
After an incubation of 30 min at 37° C. in an humid incubator in 5% CO2, the reaction was stopped by adding a fixed volume of a solution containing a lysis buffer and cAMP-D2 (cAMP labeled with the dye d2) and the anti cAMP antibody linked to Europium and used for cAMP detection.
Readout of the experiment were performed on a fluorimeter allowing HTRF measurement. Activation curves were generated by plotting the intracellular value of cAMP versus log 10 of the compound concentration.
The 50% activation concentration (EC50) was calculated by nonlinear regression using the sigmoidal dose-response (variable slope) equation with Prism 5 software.
Emax % is determined as the maximal intracellular value of cAMP for test compound (upper limit of cAMP vs concentration curve) divided by the maximal intracellular value of cAMP for H2-relaxin determined in the same test occasion multiplied by 100. Emax %=100×[cAMPtest cpd]/[cAMPH2-RlX]

Structure (SMILES)	Emax	EC50
CCCCCCCCCCCCCCCCCC(=O)N[C@@H](CCC(=O)NCCCC[C@H](NC(=O)CCOCCOCCOCCOCCOCCOCCOCCOCCOCCOCCOCCOCCNC(=O)[C@H](CCCCN)NC(=O)[C@H](CCCCN)NC(=O)[C@H](CCCNC(=N)N)NC(=O)C(C)(C)NC(=O)[C@H](CO)NC(=O)[C@H](Cc1c[nH]c2ccccc12)NC(=O)[C@@H](NC(=O)[C@H](CO)NC(=O)[C@H](CCCC)NC(=O)CNC(=O)[C@H](CCC(=O)O)NC(=O)C(C)(C)NC(=O)C(C)(C)NC(=O)[C@@H](NC(=O)[C@H](CCC(N)=O)NC(=O)[C@H](C)NC(=O)[C@H](CCCNC(=N)N)NC(=O)[C@@H](NC(=O)[C@H](CCCCN)NC(=O)[C@H](CCC(=O)O)NC(=O)[C@H](CCCNC(=N)N)NC(=O)CNC(=O)[C@H](CCC(=O)O)NC(=O)[C@H](CC(C)C)NC(C)=O)C(C)C)[C@@H](C)CC)[C@@H](C)O)C(N)=O)C(=O)O [compound 22] (Ac-LEGREKVRAQI[Aib][Aib]EG[Nle]STWS[Aib]RKK[PEG12]K([γGlu-Stearoyl])-NH2)	104%	
CCCCCCCCCCCCCCCC(=O)N[C@@H](CCC(=O)N[C@@H](CCC(=O)N[C@@H](CCC(=O)NCCCC[C@H](NC(=O)CCOCCOCCOCCOCCOCCOCCOCCOCCOCCOCCOCCOCCNC(=O)[C@H](CCCCN)NC(=O)[C@H](CCCNC(=N)N)NC(=O)C(C)(C)NC(=O)[C@H](CO)NC(=O)[C@H](Cc1c[nH]c2ccccc12)NC(=O)[C@@H](NC(=O)[C@H](CO)NC(=O)[C@H](CCSC)NC(=O)CNC(=O)[C@H](CCC(=O)O)NC(=O)C(C)(C)NC(=O)C(C)(C)NC(=O)[C@@H](NC(=O)[C@H](CCCCNC(C)=O)NC(=O)[C@H](C)NC(=O)[C@H](CCCNC(=N)N)NC(=O)[C@@H](NC(=O)[C@H](CCCCN)NC(=O)[C@H](CCC(=O)O)NC(=O)[C@H](CCCNC(=N)N)NC(=O)CNC(=O)[C@H](CCC(=O)O)NC(=O)[C@H](CC(C)C)NC(C)=O)C(C)C)[C@@H](C)CC)[C@@H](C)O)C(N)=O)C(=O)O)C(=O)O)C(=O)O [compound 25] (Ac-LEGREKVRAK(Ac)I[Aib][Aib]EGMSTWS[Aib]RK[PEG12]K([γGlu-γGlu-γGlu-Palmitoyl])-NH2)	95%	1.21 nM
CCCCCCCCCCCCCCCC(=O)N[C@@H](CCC(=O)N[C@@H](CCC(=O)N[C@@H](CCC(=O)NCCCC[C@H](NC(=O)CCOCCOCCOCCOCCOCCOCCOCCOCCOCCOCCOCCOCCNC(=O)[C@H](CCCCNC(C)=O)NC(=O)[C@H](CCCCN)NC(=O)[C@H](CCCNC(=N)N)NC(=O)C(C)(C)NC(=O)[C@H](CO)NC(=O)[C@H](Cc1c[nH]c2ccccc12)NC(=O)[C@@H](NC(=O)[C@H](CO)NC(=O)[C@H](CCCC)NC(=O)CNC(=O)[C@H](CCC(=O)O)NC(=O)C(C)(C)NC(=O)C(C)(C)NC(=O)[C@@H](NC(=O)[C@H](CCC(N)=O)NC(=O)C(C)(C)NC(=O)[C@H](CCCNC(=N)N)NC(=O)[C@@H](NC(=O)[C@H](CCCCN)NC(=O)[C@H](CCC(=O)O)NC(=O)[C@H](CCCNC(=N)N)NC(=O)CNC(=O)[C@H](CCC(=O)O)NC(=O)[C@H](CC(C)C)NC(C)=O)C(C)C)[C@@H](C)CC)[C@@H](C)O)C(N)=O)C(=O)O)C(=O)O)C(=O)O [compound 28] (Ac-LEGREKVR[Aib]QI[Aib][Aib]EG[Nle]STWS[Aib]RKK(Ac)[PEG12]K([γGlu-γGlu-γGlu-Palmitoyl])-NH2)	78%	
CCCCCCCCCCCCCCCC(=O)N[C@@H](CCC(=O)N[C@@H](CCC(=O)N[C@@H](CCC(=O)NCCCC[C@H](NC(=O)CCOCCOCCOCCOCCOCCOCCOCCOCCOCCOCCOCCOCCNC(=O)[C@H](CCCCN)NC(=O)[C@H](CCCNC(=N)N)NC(=O)C(C)(C)NC(=O)[C@H](CO)NC(=O)[C@H](Cc1cccc2ccccc12)NC(=O)[C@@H](NC(=O)[C@H](CO)NC(=O)[C@H](CCCC)NC(=O)CNC(=O)[C@H](CCC(=O)O)NC(=O)C(C)(C)NC(=O)C(C)(C)NC(=O)[C@@H](NC(=O)[C@H](CCCCNC(C)=O)NC(=O)[C@H](C)NC(=O)[C@H](CCCNC(=N)N)NC(=O)[C@@H](NC(=O)[C@H](CCCCN)NC(=O)[C@H](CCC(=O)O)NC(=O)[C@H](CCCNC(=N)N)NC(=O)CNC(=O)[C@H](CCC(=O)O)NC(=O)[C@H](CC(C)C)NC(C)=O)C(C)C)[C@@H](C)CC)[C@@H](C)O)C(N)=O)C(=O)O)C(=O)O)C(=O)O [compound 29] (Ac-LEGREKVRAK(Ac)I[Aib][Aib]EG[Nle]ST[1Nal]S[Aib]RK[PEG12]K([γGlu-γGlu-γGlu-Palmitoyl])-NH2)	78%	
CCCCCCCCCCCCCCCCCC(=O)N[C@@H](CCC(=O)N[C@@H](CCC(=O)N[C@@H](CCC(=O)NCCCC[C@H](NC(=O)CCOCCOCCOCCOCCOCCOCCOCCOCCOCCOCCOCCOCCNC(=O)[C@H](CCCCN)NC(=O)[C@H](CCCCN)NC(=O)[C@H](CCCNC(=N)N)NC(=O)C(C)(C)NC(=O)[C@H](CO)NC(=O)[C@H](Cc1c[nH]c2ccccc12)NC(=O)[C@@H](NC(=O)[C@H](CO)NC(=O)[C@H](CCCC)NC(=O)CNC(=O)[C@H](CCC(=O)O)NC(=O)C(C)(C)NC(=O)C(C)(C)NC(=O)[C@@H](NC(=O)[C@H](CCC(N)=O)NC(=O)[C@H](C)NC(=O)[C@H](CCCNC(=N)N)NC(=O)[C@@H](NC(=O)[C@H](CCCCN)NC(=O)[C@H](CCC(=O)O)NC(=O)[C@H](CCCNC(=N)N)NC(=O)CNC(=O)[C@H](CCC(=O)O)NC(=O)[C@H](CC(C)C)NC(C)=O)C(C)C)[C@@H](C)CC)[C@@H](C)O)C(N)=O)C(=O)O)C(=O)O)C(=O)O [compound 31] (Ac-LEGREKVRAQI[Aib][Aib]EG[Nle]STWS[Aib]RKK[PEG12]K([γGlu-γGlu-γGlu-Stearoyl])-NH2)	86%	
CCCCCCCCCCCCCCCCCC(=O)N[C@@H](CCC(=O)N[C@@H](CCC(=O)N[C@@H](CCC(=O)NCCCC[C@H](NC(=O)CCOCCOCCOCCOCCOCCOCCOCCOCCOCCOCCOCCOCCNC(=O)[C@H](CCCCN)NC(=O)[C@H](CCCCN)NC(=O)[C@H](CCCNC(=N)N)NC(=O)C(C)(C)NC(=O)[C@H](CO)NC(=O)[C@H](Cc1c[nH]c2ccccc12)NC(=O)[C@@H](NC(=O)[C@H](CO)NC(=O)[C@H](CCCC)NC(=O)CNC(=O)[C@H](CCC(=O)O)NC(=O)C(C)(C)NC(=O)C(C)(C)NC(=O)[C@@H](NC(=O)[C@H](CCCCNC(C)=O)NC(=O)[C@H](C)NC(=O)[C@H](CCCNC(=N)N)NC(=O)[C@@H](NC(=O)[C@H](CCCCN)NC(=O)[C@H](CCC(=O)O)NC(=O)[C@H](CCCNC(=N)N)NC(=O)CNC(=O)[C@H](CCC(=O)O)NC(=O)[C@H](CC(C)C)NC(C)=O)C(C)C)[C@@H](C)CC)[C@@H](C)O)C(N)=O)C(=O)O)C(=O)O)C(=O)O [compound 32] (Ac-LEGREKVRAK(Ac)I[Aib][Aib]EG[Nle]STWS[Aib]RKK[PEG12]K([γGlu-γGlu-γGlu-Stearoyl])-NH2)	96%	1.04 nM
CCCCCCCCCCCCCCCCCC(=O)N[C@@H](CCC(=O)N[C@@H](CCC(=O)N[C@@H](CCC(=O)NCCCC[C@H](NC(=O)CCOCCOCCOCCOCCOCCOCCOCCOCCOCCOCCOCCOCCNC(=O)[C@H](CCCCN)NC(=O)[C@H](CCCNC(=N)N)NC(=O)C(C)(C)NC(=O)[C@H](CO)NC(=O)[C@H](Cc1c[nH]c2ccccc12)NC(=O)[C@@H](NC(=O)[C@H](CO)NC(=O)[C@H](CCCC)NC(=O)CNC(=O)[C@H](CCC(=O)O)NC(=O)C(C)(C)NC(=O)C(C)(C)NC(=O)[C@@H](NC(=O)[C@H](CCCCNC(C)=O)NC(=O)[C@H](C)NC(=O)[C@H](CCCNC(=N)N)NC(=O)[C@@H](NC(=O)[C@H](CCCCN)NC(=O)[C@H](CCC(=O)O)NC(=O)[C@H](CCCNC(=N)N)NC(=O)CNC(=O)[C@H](CCC(=O)O)NC(=O)[C@H](CC(C)C)NC(C)=O)C(C)C)[C@@H](C)CC)[C@@H](C)O)C(N)=O)C(=O)O)C(=O)O)C(=O)O [compound 34] (Ac-LEGREKVRAK(Ac)I[Aib][Aib]EG[Nle]STWS[Aib]RK[PEG12]K([γGlu-γGlu-γGlu-Stearoyl])-NH2)	95%	

Reference: patent publication US10988523B2, “Modified lipidated Relaxin B chain peptides and their therapeutic use” (Sanofi, priority 2018, dated 2021)
